≈ marks a conversion by molar mass, not a printed value. Like-named read-outs stand apart in the source and are kept apart here.

This note sets out measurements from US7700581B2, “Cephalosporin compounds comprising a C3 thio-methyl moiety substituted with N-containing heterocyclic group, and a C7 thiourea acetamido group, their preparations and uses thereof” (Guangzhou Baiyunshan Pharmaceutical Co., Ltd., priority 2007, dated 2010).

In one data set the test system is Enterococcus. Briefly: In vitro antibacterial activity test (MIC). The data set is classed as cell-based. The following applies: read-out: minimum inhibitory concentration (MIC). The protocol: (§1) In vitro antibacterial activity test of the cephalosporin compounds disclosed herein using the common methods known in the art were conducted.
The subject of a further data set is Salmonella. Nature of the data set: In vitro antibacterial activity test (MIC). The following applies: read-out: minimum inhibitory concentration (MIC). The data set is classed as cell-based. The procedure:
as §1

The next data set concerns Staphylococcus aureus. Nature of the data set: In vitro antibacterial activity test (MIC). Particulars: read-out: minimum inhibitory concentration (MIC). The data set is classed as cell-based. The protocol:
as §1

Data set [1] has as its system Staphylococcus epidermidis. Briefly: In vitro antibacterial activity test (MIC). The following applies: read-out: minimum inhibitory concentration (MIC). The data set is classed as cell-based. The protocol: as §1
A further data set has as its system Hemophilus influenzae. Nature of the data set: In vitro antibacterial activity test (MIC). The data set is classed as cell-based. Particulars: Haemophilus influenzae, read-out: minimum inhibitory concentration (MIC). The procedure:
as §1

For a further data set, the system named is Pseudomonas aeruginosa. Nature of the data set: In vitro antibacterial activity test (MIC). The data set is classed as cell-based. The following applies: read-out: minimum inhibitory concentration (MIC). The procedure:
as §1

A further data set relates to Streptococcus pneumoniae. Nature of the data set: In vitro antibacterial activity test (MIC). The data set is classed as cell-based. Particulars: read-out: minimum inhibitory concentration (MIC). The procedure:
as §1

Data set [2] in a line: Pharmacokinetic comparative experiment, intravenous injection, plasma by HPLC. The data set is classed as in vivo, Beagle dogs. The procedure: The resulting BYS02 obtained from the Examples 6 and 7 as shown above was used to compare with cefathiamidine in the following pharmacokinetic study.
Commercially available cefathiamidine was used as the comparison in the pharmacokinetic study. Using the cross-over controlled trial experimental design, 6 healthy Beagle dogs were divided into two groups: one group of dogs were intravenously injected with 50 mg/kg.bw of the BYS02 and the other group of dogs were injected with 50 mg/kg.bw of cefathiamidine. Blood samples were taken every 12 hours. The drug plasma concentrations were analyzed using HPLC. The drug plasma concentration over the time data were analyzed using MCPKP program.
Six Beagle dogs were provided by Guangzhou Pharmaceutical Research Institute. They were healthy, male, one-year old, and each weighed 8.0±0.1 kg. The dogs were kept in single-dog cages and fed with water and food according to the standards for laboratory animals. One week before the tests, the dogs were examined for hearts, livers, and kidneys, and they were found normal.
BYS02 was prepared according to Example 6 with a purity of 90%. Cefathiamidine was purchased from the market. Heparin sodium, sodium hydrogen phosphate, citric acid, methanol, ethyl acetate and other agents used were analytical-pure. Propionitrile used was chromatographic-pure. Water is pure. High Performance Liquid Chromatography (HPLC) and high-speed refrigerated centrifuges were used in the tests.
Sixteen hours before and 4 hours after the administration, the Beagle dogs were not allowed to eat food but allowed to drink water freely. After intravenously injection with 50 mg/kg.bw of the BYS02 and cefathiamidine, respectively, the two groups of dogs were taken 3 ml of blood samples intravenously at 0, 0.083, 0.17, 0.25, 0.5, 1, 1.5, 2, 3, 4, 6, 9, and 12 hours. The dogs were administrated every other week and blood samples were collected according to the above schedule. The blood samples were added to centrifuge tubes, mixed with heparin, centrifuged at 4000 rpm for 10 minutes, and the serum samples were stored in a refrigerator at −20° C. until they were used.
Hypersil ODS2, C18 column (4.6 mm×150 mm, 5 μm); mobile phase: propionitrile/phosphate buffer (11/89 volume ratio); wavelength: 254 nm; flow rate: 1.0 ml/min; room temperature; sample size: 20 μl.
Preparation of phosphate buffer (pH 7.0): 2.76 g of sodium hydrogen phosphate, 1.29 g of citric acid and 1000 ml of water were mixed well and filtered.
Drug plasma concentration over the time data were analyzed using MCPKP program to calculate the pharmacokinetic parameters. The average values and standard deviations were also calculated.

For another data set, the system named is SPF grade mice. Briefly: Acute toxicity test by intravenous injection. The data set is classed as in vivo. From the text: A commonly-used acute toxicity test method was used with SPF grade mice by intravenous injection.
The nature of data set [3]: Water solubility of the product. Particulars: product of Example 6. The data set is classed as physicochemical. The procedure: 200 ml of methylene dichloride and 2.0 g of the intermediate prepared according to Example 1 were added to a three-neck flask. 16 ml of triethylamine was added dropwise to the flask to dissolve the solid. 0.6 g of N,N′-diisopropylthiourea was added to the reaction mixture. The mixture was refluxed until the reaction was complete. A solid product appeared in the reaction mixture. The temperature was lowered and the crystallization was carried out for an hour. The solid was filtered and dried under vacuum to yield 1.5 g of the product. It has a pH value of 5.4 and cloudiness of lower than 1 degree (1 g/10 ml water). The product is water soluble.

The subject of data set [4] is Streptococcus hemolyticus group A. Nature of the data set: In vitro antibacterial activity test (MIC). The data set is classed as cell-based. The following applies: Streptococcus pyogenes, read-out: minimum inhibitory concentration (MIC). The protocol:
as §1

For another data set, the system named is Streptococcus pyogenes. Nature of the data set: In vitro antibacterial activity test (MIC). The data set is classed as cell-based. The following applies: read-out: minimum inhibitory concentration (MIC). The protocol:
as §1

Another data set deals with Viridans streptococcus. Briefly: In vitro antibacterial activity test (MIC). The data set is classed as cell-based. Particulars: read-out: minimum inhibitory concentration (MIC). The procedure:
as §1

[5] abbreviates: Beagle dogs, intravenous injection, 50 mg/kg.bw.
[6] abbreviates: single intravenous administration.

Consider `CO/N=C(\C(=O)N[C@@H]1C(=O)N2C(C(=O)O)=C(CSc3nc(=O)c(=O)[nH]n3C)CS[C@H]12)c1csc(N)n1` [Ceftriaxone, ceftriaxone, reference compound], for which the MIC was greater than 512 µg/mL in the data set on Enterococcus, 0.125 µg/mL (≈ 0.225 µM) in the data set with Salmonella, 32 to 64 µg/mL (≈ 57.7 to 115 µM) in the data set on Staphylococcus aureus and 2 to 8 µg/mL (≈ 3.61 to 14.4 µM) in data set [1].
For `CC(C)N=C(NC(C)C)SCC(=O)NC1C(=O)N2C(C(=O)O)=C(CSc3nc(=O)c(=O)[nH]n3C)CSC12` (stereo not drawn) [Compound II, 3-((1,2,5,6-tetrahydro-2-methyl-5,6-dioxo-1,2,4-triazine-3-ylthio)methyl)-7-[[[[[(1-methylethyl)amino][(1-methylethyl)imino]methyl]thio]acetyl]amino]-8-oxo-5-thia-1-aza-bicyclo[4.2.0]oct-2-ene-2-carboxylic acid], the MIC in the data set on Enterococcus is 4 to 8 µg/mL (≈ 7 to 14 µM). The MIC in the data set with Hemophilus influenzae was in the range of 8 to 16 µg/mL (≈ 14 to 28 µM). Further, in the data set on Pseudomonas aeruginosa, the MIC is greater than 512 µg/mL. The MIC in the data set on Staphylococcus aureus lay within 1 to 4 µg/mL (≈ 1.75 to 7 µM). In addition, the MIC in data set [1] was in the range of 0.0312 to 2 µg/mL (≈ 0.0546 to 3.5 µM). Further, in the data set with Streptococcus pneumoniae, the MIC lay within 0.125 to 0.5 µg/mL (≈ 0.219 to 0.875 µM). For the same compound, in [2] (setting [5]), the ClB came to 7.83 ± 1.5 mL/min/kg, the Co came to 208.97 ± 61.16 µg/mL, the V1 was determined as 0.25 ± 0.07 L/kg and the VB stood at 1.61 ± 0.30 L/kg. Also, in data set [2] (setting [5]), the t1/2α is 37.8 ± 7.2 min and the t1/2β is 131 ± 2.4 min. Besides, the AUC – broadly, the area under the concentration-time curve, a measure of exposure – in data set [2] (male, dog, in vivo, Beagle dogs, intravenous injection, 50 mg/kg.bw, read-out: AUC) is 108 ± 18.2 µg·h/mL. Also, in the data set on SPF grade mice (setting [6]), the LD50 was 672 mg/kg.bw and the “LD50 95% confidence limit” value is given as 650-700 mg/kg.bw. Besides, the mortality entry with SPF grade mice (single intravenous injection of 465 mg/kg.bw) was “No death”. Also, in the data set on SPF grade mice (single intravenous injection of 930 mg/kg.bw or more), the mortality result was “the animals died after 10 seconds of struggling”. Besides, the solubility in water entry in [3] is listed as “water soluble”.
As to `Cc1nc(SCC2=C(C(=O)O)N3C(=O)C(NC(=O)CSC(=NC(C)C)NC(C)C)C3SC2)sc1CC(=O)O` (stereo not drawn) [Compound V, 3-[[[5-(carboxymethyl)-4-methyl-2-thiazolyl]thio]methyl]-7-[[[[[(1-methylethyl)amino][(1-methylethyl)imino]methyl]thio]acetyl]amino]-8-oxo-5-thia-1-aza-bicyclo[4.2.0]oct-2-ene-2-carboxylic acid], the MIC is 2 to 8 µg/mL (≈ 3.32 to 13.3 µM) in the data set on Enterococcus; greater than 256 µg/mL in the data set with Hemophilus influenzae; 2 to 8 µg/mL (≈ 3.32 to 13.3 µM) in the data set on Salmonella; 0.25 to 2 µg/mL (≈ 0.415 to 3.32 µM) in the data set with Staphylococcus aureus; 0.125 to 1 µg/mL (≈ 0.208 to 1.66 µM) in data set [4]; 0.0312 to 0.5 µg/mL (≈ 0.0518 to 0.831 µM) with Streptococcus pyogenes. For the same compound, in the data set with Viridans streptococcus, the MIC was 0.125 to 4 µg/mL (≈ 0.208 to 6.65 µM).
As to `CC(=O)OCC1=C(C(=O)O)N2C(=O)[C@@H](NC(=O)CSC(=NC(C)C)NC(C)C)[C@H]2SC1` [cefathiamidine, reference compound], in [2] (dog, in vivo, iv, 50 mg/kg), the AUC is 42.25 ± 1.02 µg·h/mL, the ClB was determined as 19.7 ± 0.5 mL/min/kg, the Co amounted to 90.84 ± 29.71 µg/mL and the V1 was determined as 0.59 ± 0.20 L/kg. In data set [2] (dog, in vivo, iv, 50 mg/kg), the VB amounted to 1.11 ± 0.07 L/kg, the t1/2α came to 12.6 ± 8.4 min and the t1/2β was 39 ± 1.8 min.
